Assay results: the supplement of paper PMC10307832

Assays:
[1] = compound: O=C(/C=C/c1ccccc1)NC(NC(=S)Nc1cccc2cccnc12)C(Cl)(Cl)Cl [Salubrinal]; test: relative viability (nuclei count vs DMSO), 5 days (fraction); higher = more cells survive
How it was run: (§1)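 Acceptance criteria were a control CV below 25% and at least one doubling per plate. Lung cancer cell lines in 1536-well plates got five library-drug doses (not always all listed) √10 apart by pinning and were left 5 days with no medium change. Viability divides treated-well nuclei by vehicle-well nuclei and is the median across plates. Nuclei were counted by MetaXpress from 4× Hoechst images.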

[2] = compound: Cc1ccc2nc(NCCN)c3ncc(C)n3c2c1; test: as above
How it was run: as §1

Row | Cell Line | relative viability ([1]; 0.08 µM) | relative viability ([1]; 0.253 µM) | relative viability ([1]; 0.8 µM) | relative viability ([1]; 2.53 µM) | relative viability ([1]; 8 µM) | relative viability ([2]; 0.04 µM) | relative viability ([2]; 0.1265 µM) | relative viability ([2]; 0.4 µM) | relative viability ([2]; 1.265 µM) | relative viability ([2]; 4 µM)
1 | HCC-44 | 0.952 | 0.97 | 1.07 | 1.02 | 0.973 | 0.976 | 0.945 | 0.963 | 0.972 | 0.914
2 | HCC-78 | 1.03 | 0.937 | 1.27 | 0.949 | 0.891 | 1.08 | 0.979 | 0.919 | 0.943 | 0.826
3 | HCC-366 | 1.09 | 0.915 | 1.04 | 1.01 | 1.04 | 1.03 | 1.04 | 1.05 | 0.98 | 0.992
4 | HCC-827 | 1.04 | 1.07 | 1.01 | 1.01 | 1.03 | 1.07 | 1.04 | 1.02 | 1.04 | 1.05
5 | HOP-62 | 1.01 | 0.981 | 1.11 | 1.06 | 0.98 | 0.97 | 1 | 0.827 | 1.04 | 0.984
6 | IA-LM | 0.983 | 0.9 | 1.15 | 0.903 | 0.922 | 0.989 | 0.984 | 0.761 | 0.756 | 0.743
7 | LC-2-ad | 1.01 | 0.921 | 1.13 | 0.99 | 0.93 | 0.991 | 1.01 | 0.911 | 1.03 | 0.965
8 | LCLC-97TM1 | 1.07 | 1.06 | 1.21 | 0.992 | 1.11 | 1.07 | 0.934 | 0.978 | 1.04 | 0.899
9 | LCLC-103H | 1.07 | 0.932 | 1.05 | 1.09 | 0.935 | 1 | 0.974 | 0.918 | 1.08 | 0.955
10 | LK-2 | 1.08 | 1.01 | 1.27 | 1.16 | 1 | 0.961 | 0.928 | 0.881 | 0.979 | 1.03
11 | LOU-NH91 | 0.985 | 0.976 | 1.04 | 0.983 | 0.937 | 1.01 | 0.961 | 0.949 | 0.979 | 0.901
12 | LU99A | 1.07 | 0.862 | 1.03 | 0.9 | 0.898 | 1.07 | 0.904 | 0.986 | 0.961 | 0.839
13 | LXF-289 | 1.04 | 0.945 | 1.01 | 0.995 | 0.975 | 0.985 | 0.966 | 1.01 | 1.01 | 1.02
14 | NCI-H23 | 1.11 | 0.858 | 1.18 | 0.995 | 1.08 | 1.06 | 1.11 | 0.853 | 1.09 | 0.907
15 | NCI-H322M | 1.01 | 0.869 | 0.963 | 0.988 | 0.811 | 0.983 | 0.915 | 0.988 | 0.987 | 0.996
16 | NCI-H358 | 1.06 | 1.02 | 1.09 | 0.908 | 0.795 | 0.988 | 1.01 | 0.933 | 1.07 | 0.919
17 | NCI-H441 | 1.25 | 1.02 | 1.34 | 1.03 | 0.784 | 1.1 | 1.05 | 1.09 | 1.11 | 0.964
